Data taken from patent US20070254863A1 (priority 2006, published 2007).
Where two headings read alike, the source gives them in different places.

How the values were obtained:
[1] = target: human cannabinoid CB2 receptor (Homo sapiens, UniProt P34972); experiment: biochemical; format: binding
Method: 3. In Vitro Binding Affinity of the Test Compounds to CB2 Receptors
After incubation of a freshly prepared cell membrane preparation with the [^3H]-ligand, with or without the addition of the compounds described herein, separation of bound and free ligand is performed by filtration over glass-fiber filters. Radioactivity on the filter is measured by liquid scintillation counting.

hamster SUR1 = target: T1, hamster SUR1 (Cricetus cricetus, UniProt Q09427); experiment: In vitro binding affinity to rodent KATP channels: SUR1 ([3H]glibenclamide displacement, COS cell membranes); conditions: hamster SUR1 in COS cell membranes; read-out: Affinity to SUR 1 (converted)
T1 construct: expressed in transfected cells; host or cells: COS-1 cells, transient (pcDNA vector)
Method: 1. In Vitro Binding Affinity of the Test Compounds to Rodent KATP Channels
Competitive binding experiments were performed to characterize the affinity of the test compounds for the binding sites for sulfonylureas and KATP channel openers (KCOS) on hamster SUR1. To assess the affinity for the sulfonylurea site, membranes from COS-cells transiently expressing hamster SUR1 were incubated in the presence of [^3H]glibenclamide with increasing concentrations of test compounds. […] For each test compound four displacement curves were measured (+/−MgATP from the human and hamster isoform). Per curve 9-15 distinct concentrations were tested covering the relevant range. All measurements were repeated at least 5 times in independent experiments.
(§1) [^3H]glibenclamide (specific activity 51 Ci mmol^−1) was obtained from NEN (Dreieich, Germany). Where needed, stock solutions were prepared in dimethylsulfoxide with a final solvent concentration in the media below 1%.
(§2) SUR- or Kir6.x isoforms were used either subcloned in the pcDNA (hamster SUR1, mouse Kir6.2) or pCMV vector (rat SUR2A, SUR2B).
(§3) For transfection, the cells were incubated 4 hours in a Tris-buffered salt solution containing DNA (5-10 μg/ml) plus DEAE-dextran (1 mg/ml), 2 min in HEPES-buffered salt solution plus dimethylsulfoxide (10%) and 4 hours in DMEM-HG plus chloroquine (100 μM). Cells were then returned to DMEM-HG plus 10% FCS. […] For binding experiments, resuspended membranes (final protein concentration 5-50 μg/ml) were incubated in “Tris-buffer” (50 mM, pH 7.4) containing either [^3H]glibenclamide (final concentration 0.3 nM or 3 nM and nonspecific binding defined by 100 nM or 1 μM glibenclamide for SUR1 or SUR2Y1205S-isoforms, respectively) or [^3H]P1075 (final concentration 3 nM, nonspecific binding defined by 100 μM pinacidil) and increasing concentrations of the test compounds. The free Mg^2+ concentration were kept close to 0.7 mM. […] Incubations were carried out for 1 h at room temperature and were terminated by rapid filtration through Whatman GF/B filters.
(§4) The inhibition constant (Ki value) of the test substances was calculated from the respective IC50 value, and was stated as the negative logarithmic value thereof (pKi).

rat SUR2A = rat SUR2A (Rattus norvegicus, UniProt Q63563); experiment: In vitro binding affinity to rodent KATP channels: SUR2A ([3H]P1075 / [3H]glibenclamide displacement, COS cell membranes)
Method: Therefore, two strategies can be used to detect binding to the sulfonylurea site on SUR2A.
Membranes from COS-cells transiently expressing rat SUR2A were incubated in the presence of the radioligands with increasing concentrations of test compounds as described above. […] For each test compound four displacement curves were measured (displacement of [^3H]P1075 from the rat isoform of the wild type receptor and displacement of [^3H]glibenclamide from the rat isoform of SUR2AY1205S). Per curve 9-15 distinct concentrations were tested covering the relevant range. All measurements were repeated at least 5 times in independent experiments.
as §1, §2, §3, §4

[2] = cloned human CB2 receptor expressed in CHO cells, read-out: Affinity to CB2 (converted)
[3] = rat SUR2A in COS cell membranes

T1 sequence (Q09427 whole entry): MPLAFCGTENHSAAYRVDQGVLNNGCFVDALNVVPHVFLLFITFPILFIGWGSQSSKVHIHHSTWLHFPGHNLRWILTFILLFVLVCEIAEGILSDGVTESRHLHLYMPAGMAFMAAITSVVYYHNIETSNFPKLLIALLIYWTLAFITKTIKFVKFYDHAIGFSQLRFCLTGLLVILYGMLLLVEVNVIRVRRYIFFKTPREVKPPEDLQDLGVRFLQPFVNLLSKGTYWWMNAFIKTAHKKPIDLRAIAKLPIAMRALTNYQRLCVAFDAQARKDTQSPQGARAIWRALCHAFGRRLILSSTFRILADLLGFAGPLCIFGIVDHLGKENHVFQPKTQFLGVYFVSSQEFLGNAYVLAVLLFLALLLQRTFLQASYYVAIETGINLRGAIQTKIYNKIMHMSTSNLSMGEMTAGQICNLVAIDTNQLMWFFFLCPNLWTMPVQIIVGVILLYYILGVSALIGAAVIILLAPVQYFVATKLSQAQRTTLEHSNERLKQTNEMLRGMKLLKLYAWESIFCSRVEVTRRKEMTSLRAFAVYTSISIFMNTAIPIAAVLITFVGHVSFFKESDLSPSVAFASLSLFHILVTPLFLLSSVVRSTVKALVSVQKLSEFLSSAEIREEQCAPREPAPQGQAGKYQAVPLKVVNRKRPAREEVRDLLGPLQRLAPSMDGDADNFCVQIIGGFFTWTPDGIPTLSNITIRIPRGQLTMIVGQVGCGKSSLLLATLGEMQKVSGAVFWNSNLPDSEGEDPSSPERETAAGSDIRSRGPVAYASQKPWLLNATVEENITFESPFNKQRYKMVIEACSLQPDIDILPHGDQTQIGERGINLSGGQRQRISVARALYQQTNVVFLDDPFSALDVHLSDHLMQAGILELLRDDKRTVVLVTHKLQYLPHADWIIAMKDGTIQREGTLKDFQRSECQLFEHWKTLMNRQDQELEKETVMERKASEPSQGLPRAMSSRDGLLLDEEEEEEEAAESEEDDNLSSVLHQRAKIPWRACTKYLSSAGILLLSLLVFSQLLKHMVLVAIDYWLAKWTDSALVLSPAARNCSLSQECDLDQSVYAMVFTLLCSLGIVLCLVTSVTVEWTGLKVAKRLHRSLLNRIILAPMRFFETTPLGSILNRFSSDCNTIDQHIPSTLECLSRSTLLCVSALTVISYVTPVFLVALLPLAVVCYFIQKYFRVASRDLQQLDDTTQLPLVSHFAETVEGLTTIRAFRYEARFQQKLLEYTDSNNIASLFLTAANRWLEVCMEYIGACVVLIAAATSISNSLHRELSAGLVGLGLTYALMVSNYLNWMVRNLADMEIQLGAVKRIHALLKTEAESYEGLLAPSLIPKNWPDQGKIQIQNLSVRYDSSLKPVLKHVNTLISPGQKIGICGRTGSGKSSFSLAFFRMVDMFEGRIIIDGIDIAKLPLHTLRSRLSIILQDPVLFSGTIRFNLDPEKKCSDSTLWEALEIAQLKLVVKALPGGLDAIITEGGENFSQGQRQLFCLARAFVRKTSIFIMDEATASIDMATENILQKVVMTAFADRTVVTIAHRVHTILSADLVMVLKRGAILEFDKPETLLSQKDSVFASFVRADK
Chain of rat SUR2A (Q63563 whole entry): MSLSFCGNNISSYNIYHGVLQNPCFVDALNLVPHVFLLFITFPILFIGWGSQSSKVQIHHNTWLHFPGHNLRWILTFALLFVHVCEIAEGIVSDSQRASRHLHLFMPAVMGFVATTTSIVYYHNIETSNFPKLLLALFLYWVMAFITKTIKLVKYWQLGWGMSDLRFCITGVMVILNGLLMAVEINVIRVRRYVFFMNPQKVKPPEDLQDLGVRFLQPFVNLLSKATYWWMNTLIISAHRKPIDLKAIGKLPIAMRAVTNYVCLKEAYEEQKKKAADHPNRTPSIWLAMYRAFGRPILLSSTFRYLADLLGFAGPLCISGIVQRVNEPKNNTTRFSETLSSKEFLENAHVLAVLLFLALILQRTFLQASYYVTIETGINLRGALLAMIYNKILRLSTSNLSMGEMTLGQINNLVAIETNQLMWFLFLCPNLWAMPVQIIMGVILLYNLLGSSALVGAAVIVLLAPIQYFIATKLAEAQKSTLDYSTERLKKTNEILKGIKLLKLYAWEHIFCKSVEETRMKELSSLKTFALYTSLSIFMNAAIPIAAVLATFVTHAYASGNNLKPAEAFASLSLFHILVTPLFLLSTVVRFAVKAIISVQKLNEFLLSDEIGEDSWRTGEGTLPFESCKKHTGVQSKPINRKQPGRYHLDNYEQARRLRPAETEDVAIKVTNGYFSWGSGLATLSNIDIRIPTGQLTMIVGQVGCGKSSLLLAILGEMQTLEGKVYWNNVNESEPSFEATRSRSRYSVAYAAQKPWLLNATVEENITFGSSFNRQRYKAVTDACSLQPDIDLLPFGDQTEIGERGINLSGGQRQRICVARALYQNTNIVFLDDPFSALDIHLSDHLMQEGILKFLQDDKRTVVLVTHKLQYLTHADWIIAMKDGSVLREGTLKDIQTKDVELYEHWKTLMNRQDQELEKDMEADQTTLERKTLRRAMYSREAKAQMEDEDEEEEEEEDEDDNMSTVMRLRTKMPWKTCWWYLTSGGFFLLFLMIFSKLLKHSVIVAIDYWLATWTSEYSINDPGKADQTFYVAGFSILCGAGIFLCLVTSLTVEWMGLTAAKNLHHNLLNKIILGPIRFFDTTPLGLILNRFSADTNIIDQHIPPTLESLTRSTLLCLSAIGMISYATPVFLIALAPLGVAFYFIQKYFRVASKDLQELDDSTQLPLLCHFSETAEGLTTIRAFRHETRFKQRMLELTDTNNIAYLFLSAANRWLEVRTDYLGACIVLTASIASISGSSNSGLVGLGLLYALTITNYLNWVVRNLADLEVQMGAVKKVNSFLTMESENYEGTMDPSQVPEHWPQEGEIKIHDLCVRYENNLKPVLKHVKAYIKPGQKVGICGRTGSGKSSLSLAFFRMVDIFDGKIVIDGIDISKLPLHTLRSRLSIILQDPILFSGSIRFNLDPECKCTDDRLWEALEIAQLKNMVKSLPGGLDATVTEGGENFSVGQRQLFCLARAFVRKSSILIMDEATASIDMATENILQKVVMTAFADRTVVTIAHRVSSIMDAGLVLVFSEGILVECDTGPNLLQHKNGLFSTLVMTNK
Chain of human cannabinoid CB2 receptor (P34972 whole entry): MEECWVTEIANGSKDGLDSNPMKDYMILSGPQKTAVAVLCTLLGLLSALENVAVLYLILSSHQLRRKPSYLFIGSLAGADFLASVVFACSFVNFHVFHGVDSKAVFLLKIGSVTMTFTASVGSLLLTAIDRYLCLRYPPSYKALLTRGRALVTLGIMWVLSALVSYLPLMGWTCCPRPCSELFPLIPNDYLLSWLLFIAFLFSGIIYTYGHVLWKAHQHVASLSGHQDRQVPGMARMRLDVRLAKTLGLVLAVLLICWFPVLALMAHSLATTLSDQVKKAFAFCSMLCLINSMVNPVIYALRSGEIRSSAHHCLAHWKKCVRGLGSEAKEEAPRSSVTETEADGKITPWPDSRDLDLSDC

SMILES | Ki [1, 2] | Ki (hamster SUR1) | Ki [1] | pKi (rat SUR2A) | pKi (rat SUR2A; [3])
CCCCC/C=C\C/C=C\C/C=C\C/C=C\CCCC(=O)OC(CO)CO [2-AG, Icosa-5,8,11,14-tetraenoic acid 2-hydroxy-1-hydroxymethyl-ethyl ester, reference compound] | 3.98 µM | 2.51 µM |  |  | 
CCCCC/C=C\C/C=C\C/C=C\C/C=C\CCCCOC(CO)CO [Noladineether, reference compound] |  | 3.98 µM | 0.251 µM |  | 
N#CCCNC(=NS(=O)(=O)c1ccc(Cl)cc1)N1CC(c2ccccc2)C(c2ccc(Cl)cc2)=N1 (stereo not drawn) [4-Chloro-N-[[3-(4-chloro-phenyl)-4-phenyl-4,5-dihydro-pyrazol-1-yl]-(2-cyano-ethylamino)-methylene]-benzene sulfonamide] |  | 0.2 µM |  | 5.9 | 
CCc1c(C(=O)NN2CCCCC2)nc(-c2ccc(Cl)cc2Cl)n1-c1ccc(Br)cc1 [1-(4-Bromo-phenyl)-2-(2,4-dichloro-phenyl)-5-ethyl-1H-imidazol-4-carboxylic acid piperidin-1-ylamide] |  | 3.98 µM |  | 5.3 | 
O=C(NS(=O)(=O)c1ccc(Cl)cc1)N1CC(c2ccccc2)C(c2ccc(Cl)cc2)=N1 (stereo not drawn) [4-Chloro-N-[3-(4-chloro-phenyl)-4-phenyl-4,5-dihydro-pyrazole-1-carbonyl]-benzenesulfonamide] |  | 3.16 µM |  | 4.8 | 
CCN(CC)S(=O)(=O)N=C(NC)N1CC(O)(c2ccccc2)C(c2ccc(Cl)cc2)=N1 (stereo not drawn) [N,N-Diethylamino-1-sulfonic acid [3-(4-chloro-phenyl)-4-hydroxy-4-phenyl-4,5-dihydro-pyrazol-1-yl]-methylamino-methyleneamide] |  | 100 µM |  | 5.9 | 
NC(=O)C1CCN(C(=NS(=O)(=O)c2ccc(Cl)cc2)N2CC(c3ccccc3)C(c3ccc(Cl)cc3)=N2)CC1 (stereo not drawn) [1-{(4-Chloro-benzene-sulfonylimino)-[3-(4-chloro-phenyl)-4-phenyl-4,5-dihydro-pyrazol-1-yl]-methyl}-piperidine-4-carboxylic acid amide] |  | 3.16 µM |  | 5.2 | 
CCN(CC)S(=O)(=O)N=C(SC)N1CC(c2ccccc2)C(c2ccc(Cl)cc2)=N1 (stereo not drawn) [N,N-Diethylamino-1-sulfonic acid [3-(4-chloro-phenyl)-4-phenyl-4,5-dihydro-pyrazol-1-yl]-methylsulfanyl-methyleneamide] |  | 100 µM |  | 4.7 | 
O=C(NN1CCCCC1)c1cn(-c2ccc(C(F)(F)F)cc2)c(-c2ccccc2Cl)n1 [2-(2-Chloro-phenyl)-1-(4-trifluoromethyl-phenyl)-1H-imidazole-4-carboxylic acid piperidin-1-ylamide] |  | 1 µM |  | 5.7 | 
CCc1c(C(=O)NN2CCCCC2)nn(-c2ccc(Cl)cc2Cl)c1-c1ccc(Br)cc1 [SR-147778, 5-(4-Bromo-phenyl)-1-(2,4-dichloro-phenyl)-4-ethyl-1H-pyrazole-3-carboxylic acid piperidin-1-ylamide, reference compound] | 1.26 µM | 3.16 µM |  |  | 
O=S(=O)(N=C(NC1CCNCC1)N1CC(c2ccccc2)C(c2ccc(Cl)cc2)=N1)c1ccc(Cl)cc1 (stereo not drawn) [4-Chloro-N-[[3-(4-chloro-phenyl)-4-phenyl-4,5-dihydro-pyrazol-1-yl]-(piperidin-4-ylamino)-methylene]-benzenesulfonamide] |  | 31.6 µM |  | 4.6 | 
O=C(NN1CCCCC1)c1nc(-c2ccc(Cl)cc2Cl)n(-c2ccc(Cl)cc2)n1 [1-(4-Chloro-phenyl)-5-(2,4-dichloro-phenyl)-1H-[1,2,4]triazole-3-carboxylic acid piperidin-1-yl-amide] |  | 10 µM |  | 5.0 | 
CCCCC(C)(O)c1nc(-c2ccc(Cl)cc2Cl)n(-c2ccc(Cl)cc2)c1C (stereo not drawn) [2-[1-(4-Chloro-phenyl)-2-(2,4-dichloro-phenyl)-5-methyl-1H-imidazol-4-yl]-hexan-2-ol] |  | 1.58 µM |  | 5.3 | 
CCCCCc1nc(C(=O)NC23CC4CC(CC(C4)C2)C3)sc1-c1ccccc1 [N-Adamantyl-4-pentyl-5-phenyl-thiazole-2-carboxamide] |  | 100 µM |  |  | 4.0
Cn1c(C(=O)NC2CCCCC2)nc(-c2ccc(Cl)cc2Cl)c1-c1ccc(Cl)cc1 |  | 100 µM |  |  | 4.9
O=C(NN1CCCCC1)c1cn(-c2ccc(C(F)(F)F)cc2)c(-c2ccc(Cl)cc2Cl)n1 [2-(2,4-Dichloro-phenyl)-1-(4-trifluoromethyl-phenyl)-1H-imidazole-4-carboxylic acid piperidin-1-ylamide] |  | 2.51 µM |  | 5.3 | 
O=C(NN1CCCCC1)c1nc(-c2ccc(Cl)cc2Cl)n(-c2ccc(Br)cc2)c1Cl [1-(4-Bromo-phenyl)-5-chloro-2-(2,4-dichloro-phenyl)-1H-imidazole-4-carboxylic acid piperidin-1-ylamide] |  | 3.98 µM |  | 5.5 | 
O=S(=O)(N=C(NCCCCN1CCCC1)N1CC(c2ccccc2)C(c2ccc(Cl)cc2)=N1)c1ccc(Cl)cc1 (stereo not drawn) [4-Chloro-N-[[3-(4-chloro-phenyl)-4-phenyl-4,5-dihydro-pyrazol-1-yl]-(4-pyrrolidin-1-yl-butylamino)-methylene]-benzenesulfonamide] |  | 50.1 µM |  | 5.4 | 
O=C(NN1CCCCC1)c1nc(-c2ccc(Cl)cc2Cl)n(-c2ccc(Cl)cc2)c1CC(F)(F)F [1-(4-Chloro-phenyl)-2-(2,4-dichloro-phenyl)-5-(2,2,2-trifluoro-ethyl)-1H-imidazole-4-carboxylic acid piperidin-1-ylamide] |  | 15.8 µM |  | 5.7 | 
O=C(NN1CCCC1)c1nc(-c2ccc(Cl)cc2)n(-c2ccc(Cl)cc2Cl)n1 [5-(4-Chloro-phenyl)-1-(2,4-dichloro-phenyl)-1H-[1,2,4]triazole-3-carboxylic acid pyrrolidin-1-ylamide] |  | 100 µM |  | 4.4 | 
CNC(=NS(=O)(=O)c1ccc(Cl)cc1)N1CC(c2cccnc2)C(c2ccc(Cl)cc2)=N1 (stereo not drawn) |  | 2.51 µM |  | 5.4 | 
O=C(NN1CCCCC1)c1nc(-c2ccc(Cl)cc2Cl)c(-c2ccc(Cl)cc2)s1 [5-(4-Chloro-phenyl)-4-(2,4-dichloro-phenyl)-thiazole-2-carboxylic acid piperidin-1-ylamide] |  | 2 µM |  | 5.5 | 
Cn1c(C(=O)NC2CCCCC2)nc(-c2ccc(Cl)cc2)c1-c1ccc(Cl)cc1Cl [4-(4-Chloro-phenyl)-5-(2,4-dichloro-phenyl)-1-methyl-1H-imidazole-2-carboxylic acid cyclohexylamide] |  | 100 µM |  |  | 4.7
CON(C)C(=NS(=O)(=O)c1ccc(Cl)cc1)N1CC(c2ccccc2)C(c2ccc(Cl)cc2)=N1 (stereo not drawn) [4-Chloro-N-[[3-(4-chloro-phenyl)-4-phenyl-4,5-dihydro-pyrazol-1-yl]-(methoxy-methyl-amino)-methylene]-benzenesulfonamide] |  | 1.26 µM |  | 5.9 | 
Cc1c(C(=O)NC2CCC(O)CC2)nc(-c2ccc(Cl)cc2Cl)n1-c1ccc(Cl)cc1 (stereo not drawn) [1-(4-Chloro-phenyl)-2-(2,4-dichloro-phenyl)-5-methyl-1H-imidazole-4-carboxylic acid (4-hydroxy-cyclo-hexyl)-amide] |  | 100 µM |  | 5.0 | 
CON/C(=N\S(=O)(=O)c1ccc(Cl)cc1)N1C[C@H](c2cccc(F)c2)C(c2ccc(Cl)cc2)=N1 [4-Chloro-N-{[3-(4-chloro-phenyl)-4-(3-fluoro-phenyl)-4,5-dihydro-pyrazol-1-yl]-methoxyamino-methylene}-benzenesulfonamide] |  | 2.51 µM |  | 6.1 | 
N#Cc1cc(-c2ccc(Br)cc2)n(-c2ccc(Cl)cc2Cl)n1 [5-(4-Bromo-phenyl)-1-(2,4-dichloro-phenyl)-1H-pyrazole-3-carbonitrile] |  | 100 µM |  | 5.4 | 
